In PMC3289549 (Biochemistry, 2011):
“Also recorded” adds a separate entry of the source. Read-outs that look alike come from different tables or passages of the source.

Assays:
Pin1 [1] = molecular target: T1, Pin1 (Homo sapiens, UniProt Q13526); test: α-chymotrypsin protease-coupled Pin1 inhibition assay; type: biochemical; conditions: for IC50: protease-coupled assay, substrate succinyl–Ala–Glu–cis-Pro–Phe–pNA, 4 °C, duplicate
Aqueous solubility = type: physicochemical; conditions: qualitative
Pin1 [2] = molecular target: T1, Pin1; conditions: cited from earlier work
Pin1 [3] = molecular target: T1, Pin1; conditions: cited from earlier work; remark: listed apart in the source

T1 sequence (Q13526 whole entry): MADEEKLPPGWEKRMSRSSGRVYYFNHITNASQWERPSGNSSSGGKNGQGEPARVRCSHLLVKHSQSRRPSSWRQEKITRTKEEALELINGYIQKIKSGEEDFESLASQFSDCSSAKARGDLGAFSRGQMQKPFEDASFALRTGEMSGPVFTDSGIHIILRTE

CC(=O)N[C@@H](COP(=O)(O)O)CN1CCCCC1C(=O)NCCc1c[nH]c2ccccc12 (mixture of isomers) [Compound 4a, Ac–pSer–Ψ[CH2N]-(R/S)Pip ^a–tryptamine]
IC50 (Pin1 [1]): 16 ± 2 µM
fold more potent than diastereomer 4b (Pin1 [1]; ratio of IC50 values vs 4b): approximately 12 fold

CC(=O)N[C@@H](COP(=O)(O)O)CN1CCCCC1C(=O)NCCc1c[nH]c2ccccc12 (mixture of isomers) [Compound 4b, Ac–pSer–Ψ[CH2N]-(R/S)Pip ^a–tryptamine]
IC50 (Pin1 [1]): 189 ± 17 µM

O=C(N[C@@H](COP(=O)(O)O)CN1CCC[C@H]1C(=O)NCCc1c[nH]c2ccccc12)OCC1c2ccccc2-c2ccccc21 [Compound 1, Fmoc–pSer–Ψ[CH2N]-Pro–tryptamine]
IC50 (Pin1 [1]): 6.3 ± 0.4 µM
fold better inhibition than compound 3 (Pin1 [1]; ratio of IC50 values vs 3): 5 fold
aqueous solubility (Aqueous solubility): very poor

CC(OP(=O)(O)O)C(CN1CCCC1C(=O)NCCc1c[nH]c2ccccc12)NC(=O)OCC1c2ccccc2-c2ccccc21 (stereo not shown) [Compound 3, Fmoc–pThr–Ψ[CH2N]-Pro–tryptamine]
IC50 (Pin1 [1]): 30 ± 2 µM

O=C(NC(C=C1CCCC1C(=O)NCCc1c[nH]c2ccccc12)COP(=O)(O)O)OCC1c2ccccc2-c2ccccc21 (stereo not shown) [Fmoc-pSer–Ψ[(Z)CH=C]Pro–2-(indol-3-yl)-ethylamine]
IC50 (Pin1 [2]; similarly substituted ground-state (cis-alkene) analogue): 28.3 µM

Ac–Lys(N-biotinoyl)–Ala–Ala–Bth–D-Thr(PO3H2)–Pip–Nal–Gln–NH2
Ki (Pin1 [3]): 0.00021 µM

Ac–pSer–Ψ[CH2N]-Pro–tryptamine [Compound 2]
IC50 (Pin1 [1]): 12 ± 2 µM
fold less potent than inhibitor 1 (Pin1 [1]; ratio of IC50 values vs 1): 2 fold
fold better than the similarly substituted ketone (Pin1 [1]; ratio of IC50 values vs Ac–pSer–Ψ[COCH]-Pip–2-(indol-3-yl)-ethylamine): 5 fold
fold better than the similarly substituted α-ketoamide inhibitor (Pin1 [1]; ratio of IC50 values vs Ac–pSer–Ψ[COCON]-Pro–2-(naphth-2-yl)-ethylamine): 6 fold
aqueous solubility (Aqueous solubility): improved aqueous solubility; also recorded: improved the water solubility

Ac–pSer–Ψ[COCH]-Pip–2-(indol-3-yl)-ethylamine
IC50 (Pin1 [2]; similarly substituted ketone): 61 µM

Ac–pSer–Ψ[COCON]-Pro–2-(naphth-2-yl)-ethylamine
IC50 (Pin1 [2]; similarly substituted α-ketoamide inhibitor): 100 µM
